Calls of active or inactive are those of the source. No cut-off for these calls is given here.

T1 sequence (Q92793 2-2442 limits assumed): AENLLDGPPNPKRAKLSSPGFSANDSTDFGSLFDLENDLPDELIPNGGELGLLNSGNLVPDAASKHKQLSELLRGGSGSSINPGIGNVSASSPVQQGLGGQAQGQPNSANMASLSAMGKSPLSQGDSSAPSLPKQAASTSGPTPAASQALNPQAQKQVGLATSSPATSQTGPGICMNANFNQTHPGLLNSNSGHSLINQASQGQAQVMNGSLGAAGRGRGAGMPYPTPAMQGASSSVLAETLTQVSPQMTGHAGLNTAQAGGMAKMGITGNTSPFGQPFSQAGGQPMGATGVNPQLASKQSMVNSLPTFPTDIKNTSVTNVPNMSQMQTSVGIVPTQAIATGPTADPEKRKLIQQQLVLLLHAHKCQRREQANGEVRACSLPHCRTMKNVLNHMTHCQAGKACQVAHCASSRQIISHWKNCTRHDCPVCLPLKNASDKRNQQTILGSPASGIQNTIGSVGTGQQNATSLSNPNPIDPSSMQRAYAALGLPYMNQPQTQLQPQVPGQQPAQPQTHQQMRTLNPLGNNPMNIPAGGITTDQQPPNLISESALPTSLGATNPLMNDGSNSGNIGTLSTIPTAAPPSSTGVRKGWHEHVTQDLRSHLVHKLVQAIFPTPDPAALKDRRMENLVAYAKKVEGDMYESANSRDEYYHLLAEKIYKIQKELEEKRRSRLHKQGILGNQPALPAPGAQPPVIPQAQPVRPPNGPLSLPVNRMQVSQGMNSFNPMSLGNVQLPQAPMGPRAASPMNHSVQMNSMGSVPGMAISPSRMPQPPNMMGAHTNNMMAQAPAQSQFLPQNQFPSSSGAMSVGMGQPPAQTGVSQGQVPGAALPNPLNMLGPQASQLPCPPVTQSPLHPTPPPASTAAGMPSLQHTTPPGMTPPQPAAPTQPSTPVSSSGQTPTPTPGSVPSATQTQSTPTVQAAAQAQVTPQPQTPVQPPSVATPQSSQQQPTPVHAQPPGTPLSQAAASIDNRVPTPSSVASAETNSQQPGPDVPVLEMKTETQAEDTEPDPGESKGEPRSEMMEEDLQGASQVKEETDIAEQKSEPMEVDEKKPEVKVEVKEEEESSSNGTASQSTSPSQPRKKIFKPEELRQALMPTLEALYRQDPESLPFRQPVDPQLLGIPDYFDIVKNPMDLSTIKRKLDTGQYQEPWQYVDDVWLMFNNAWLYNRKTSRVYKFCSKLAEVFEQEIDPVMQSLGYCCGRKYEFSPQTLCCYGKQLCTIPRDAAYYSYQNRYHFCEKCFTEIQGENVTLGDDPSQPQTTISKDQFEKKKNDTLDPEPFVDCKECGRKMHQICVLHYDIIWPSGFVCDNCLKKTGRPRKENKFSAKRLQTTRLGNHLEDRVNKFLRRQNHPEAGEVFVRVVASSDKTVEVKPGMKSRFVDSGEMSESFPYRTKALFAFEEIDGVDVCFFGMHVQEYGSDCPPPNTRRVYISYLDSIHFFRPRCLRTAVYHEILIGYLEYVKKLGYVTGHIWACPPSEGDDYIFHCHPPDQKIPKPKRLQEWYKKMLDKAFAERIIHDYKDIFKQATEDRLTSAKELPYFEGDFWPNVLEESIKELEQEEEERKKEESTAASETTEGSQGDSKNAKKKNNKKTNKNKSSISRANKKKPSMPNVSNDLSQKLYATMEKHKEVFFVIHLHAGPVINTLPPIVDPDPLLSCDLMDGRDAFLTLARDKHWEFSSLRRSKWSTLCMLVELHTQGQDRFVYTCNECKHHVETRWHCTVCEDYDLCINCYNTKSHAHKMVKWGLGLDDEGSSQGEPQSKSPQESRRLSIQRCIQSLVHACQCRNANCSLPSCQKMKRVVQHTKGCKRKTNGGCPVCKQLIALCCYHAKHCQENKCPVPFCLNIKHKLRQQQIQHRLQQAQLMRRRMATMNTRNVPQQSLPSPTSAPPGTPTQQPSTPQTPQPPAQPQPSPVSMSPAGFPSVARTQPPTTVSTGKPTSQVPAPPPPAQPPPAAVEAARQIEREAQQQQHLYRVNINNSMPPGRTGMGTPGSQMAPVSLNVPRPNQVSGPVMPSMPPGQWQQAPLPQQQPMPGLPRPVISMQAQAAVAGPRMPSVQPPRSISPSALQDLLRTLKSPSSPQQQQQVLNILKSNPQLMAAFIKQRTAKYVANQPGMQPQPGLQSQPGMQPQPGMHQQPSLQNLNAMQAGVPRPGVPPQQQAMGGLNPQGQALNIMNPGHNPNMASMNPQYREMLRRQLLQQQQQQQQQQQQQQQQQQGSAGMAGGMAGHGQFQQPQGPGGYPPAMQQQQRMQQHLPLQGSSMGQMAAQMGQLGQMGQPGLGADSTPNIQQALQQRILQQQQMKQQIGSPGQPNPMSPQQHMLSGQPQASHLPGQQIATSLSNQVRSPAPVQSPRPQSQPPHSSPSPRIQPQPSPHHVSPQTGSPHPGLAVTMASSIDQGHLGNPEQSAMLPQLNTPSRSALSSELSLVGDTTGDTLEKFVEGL
T1 sequence (Q96SW2 whole entry partner): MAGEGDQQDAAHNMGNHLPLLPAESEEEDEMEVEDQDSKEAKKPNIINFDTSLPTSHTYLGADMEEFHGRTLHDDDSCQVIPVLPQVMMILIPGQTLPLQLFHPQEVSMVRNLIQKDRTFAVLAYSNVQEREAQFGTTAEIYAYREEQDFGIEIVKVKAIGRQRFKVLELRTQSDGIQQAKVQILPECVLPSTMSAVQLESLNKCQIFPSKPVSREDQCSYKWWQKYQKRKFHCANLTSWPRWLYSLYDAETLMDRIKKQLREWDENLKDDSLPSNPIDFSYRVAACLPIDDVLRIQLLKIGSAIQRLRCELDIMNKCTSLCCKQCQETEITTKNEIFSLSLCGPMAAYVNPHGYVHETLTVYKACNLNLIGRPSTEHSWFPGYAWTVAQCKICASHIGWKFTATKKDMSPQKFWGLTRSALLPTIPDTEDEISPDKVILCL
Sequence of Protein cereblon/Bromodomain-containing protein 4 (Homo sapiens) (Q96SW2 whole entry, looked up, other chains not shown): as the sequence (Q96SW2 whole entry partner) above

The first experiment addresses T1, Protein cereblon/CREB-binding protein (Homo sapiens) (UniProt Q92793+Q96SW2). In words: PROTAC activity at CRBN/HiBiT-tagged CBP in human HAP1 cells assessed as total cumulative degradation by measuring AUC at 100 nM measured over 24 hrs by luminescence based analysis. Format: cell-based.
Conditions: not given
A general note: With HiBiT, luminescence reflects the tagged protein that the partner subunit can reach.
Consider `CNC(=O)N1CCc2c(c(N3CCN(C(=O)NCCOCCOCCOCCOCCOCCOCCNc4ccc5c(c4)C(=O)N(C4CCC(=O)NC4=O)C5=O)c4cc(-c5cnn(C)c5)c(C(F)(F)F)cc43)nn2C2CCOCC2)C1` (configuration not stated), for which the AUC came to 24.1.

The next experiment addresses T1, Protein cereblon/CREB-binding protein (Homo sapiens). Kind of experiment: PROTAC activity at CRBN/HiBiT-tagged CBP in human HAP1 cells assessed as total cumulative degradation by measuring AUC at 1 nM measured over 24 hrs by luminescence based analysis. Format: cell-based.
Conditions: not given
With `CNC(=O)N1CCc2c(c(N3CCN(C(=O)NCCOCCOCCOCCOCCOCCOCCNc4ccc5c(c4)C(=O)N(C4CCC(=O)NC4=O)C5=O)c4cc(-c5cnn(C)c5)c(C(F)(F)F)cc43)nn2C2CCOCC2)C1` (configuration not stated), the AUC amounted to 24.5.

For another experiment the target is unchanged. In words: PROTAC activity at CRBN/HiBiT-tagged CBP in human HAP1 cells assessed as total cumulative degradation by measuring AUC at 0.01 nM measured over 24 hrs by luminescence based analysis.
Conditions: not given
Type of experiment: cell-based.
As to `CNC(=O)N1CCc2c(c(N3CCN(C(=O)NCCOCCOCCOCCOCCOCCOCCNc4ccc5c(c4)C(=O)N(C4CCC(=O)NC4=O)C5=O)c4cc(-c5cnn(C)c5)c(C(F)(F)F)cc43)nn2C2CCOCC2)C1` (configuration not stated), the AUC amounted to 24.9.

In a further experiment the target is T2, Protein cereblon/Histone acetyltransferase p300 (Homo sapiens) (UniProt Q09472+Q96SW2). In words: PROTAC activity at CRBN/HiBiT-tagged p300 in human HAP1 cells assessed as total cumulative degradation by measuring AUC at 0.01 nM measured over 24 hrs by luminescence based analysis. Type of experiment: cell-based.
Conditions: not given
As for `CNC(=O)N1CCc2c(c(N3CCN(C(=O)NCCOCCOCCOCCOCCOCCOCCNc4ccc5c(c4)C(=O)N(C4CCC(=O)NC4=O)C5=O)c4cc(-c5cnn(C)c5)c(C(F)(F)F)cc43)nn2C2CCOCC2)C1` (configuration not stated), the AUC amounted to 27.7.

A further experiment has as its target T2, Protein cereblon/Histone acetyltransferase p300 (Homo sapiens). In words: PROTAC activity at CRBN/HiBiT-tagged p300 in human HAP1 cells assessed as induction of p300 degradation by measuring maximal efficacy at 1000 nM measured over 24 hrs by luminescence based analysis relative to control.
Conditions: not given
Format: cell-based.
In general, Emax refers to the greatest response seen or fitted, relative to the assay's reference. On to `CNC(=O)N1CCc2c(c(N3CCN(C(=O)NCCOCCOCCOCCOCCOCCOCCNc4ccc5c(c4)C(=O)N(C4CCC(=O)NC4=O)C5=O)c4cc(-c5cnn(C)c5)c(C(F)(F)F)cc43)nn2C2CCOCC2)C1` (configuration not stated), for which the maximum response (Emax) was found to be 33%.

Another experiment concerns the target T1, Protein cereblon/CREB-binding protein (Homo sapiens). Kind of experiment: PROTAC activity at CRBN/HiBiT-tagged CBP in human HAP1 cells assessed as total cumulative degradation by measuring AUC at 1000 nM measured over 24 hrs by luminescence based analysis. Format: cell-based.
Conditions: not given
`CNC(=O)N1CCc2c(c(N3CCN(C(=O)NCCOCCOCCOCCOCCOCCOCCNc4ccc5c(c4)C(=O)N(C4CCC(=O)NC4=O)C5=O)c4cc(-c5cnn(C)c5)c(C(F)(F)F)cc43)nn2C2CCOCC2)C1` (configuration not stated): the AUC came to 23.

A further experiment deals with T2, Protein cereblon/Histone acetyltransferase p300 (Homo sapiens). In words: PROTAC activity at CRBN/HiBiT-tagged p300 in human HAP1 cells assessed as total cumulative degradation by measuring AUC at 100 nM measured over 24 hrs by luminescence based analysis. Type of experiment: cell-based.
Conditions: not given
On to `CNC(=O)N1CCc2c(c(N3CCN(C(=O)NCCOCCOCCOCCOCCOCCOCCNc4ccc5c(c4)C(=O)N(C4CCC(=O)NC4=O)C5=O)c4cc(-c5cnn(C)c5)c(C(F)(F)F)cc43)nn2C2CCOCC2)C1` (configuration not stated), for which the AUC stood at 24.2.

The next experiment shares this target. In words: PROTAC activity at CRBN/HiBiT-tagged p300 in human HAP1 cells assessed as total cumulative degradation by measuring AUC at 1000 nM measured over 24 hrs by luminescence based analysis. Format: cell-based.
Conditions: not given
Take `CNC(=O)N1CCc2c(c(N3CCN(C(=O)NCCOCCOCCOCCOCCOCCOCCNc4ccc5c(c4)C(=O)N(C4CCC(=O)NC4=O)C5=O)c4cc(-c5cnn(C)c5)c(C(F)(F)F)cc43)nn2C2CCOCC2)C1` (configuration not stated): the AUC turned out to be 20.5.

For a further experiment the target is unchanged. In words: PROTAC activity at CRBN/HiBiT-tagged p300 in human HAP1 cells assessed as total cumulative degradation by measuring AUC at 0.1 nM measured over 24 hrs by luminescence based analysis. Format: cell-based.
Conditions: not given
Turning to `CNC(=O)N1CCc2c(c(N3CCN(C(=O)NCCOCCOCCOCCOCCOCCOCCNc4ccc5c(c4)C(=O)N(C4CCC(=O)NC4=O)C5=O)c4cc(-c5cnn(C)c5)c(C(F)(F)F)cc43)nn2C2CCOCC2)C1` (configuration not stated), the AUC came to 27.5.

The target in another experiment is T1, Protein cereblon/CREB-binding protein (Homo sapiens). In words: PROTAC activity at CRBN/HiBiT-tagged CBP in human HAP1 cells assessed as total cumulative degradation by measuring AUC at 0.1 nM measured over 24 hrs by luminescence based analysis. Type of experiment: cell-based.
Conditions: not given
`CNC(=O)N1CCc2c(c(N3CCN(C(=O)NCCOCCOCCOCCOCCOCCOCCNc4ccc5c(c4)C(=O)N(C4CCC(=O)NC4=O)C5=O)c4cc(-c5cnn(C)c5)c(C(F)(F)F)cc43)nn2C2CCOCC2)C1` (configuration not stated): the AUC worked out at 24.4.

The target of a further experiment is T2, Protein cereblon/Histone acetyltransferase p300 (Homo sapiens). In words: PROTAC activity at CRBN/HiBiT-tagged p300 in human HAP1 cells assessed as total cumulative degradation by measuring AUC at 10 nM measured over 24 hrs by luminescence based analysis. Format: cell-based.
Conditions: not given
Take `CNC(=O)N1CCc2c(c(N3CCN(C(=O)NCCOCCOCCOCCOCCOCCOCCNc4ccc5c(c4)C(=O)N(C4CCC(=O)NC4=O)C5=O)c4cc(-c5cnn(C)c5)c(C(F)(F)F)cc43)nn2C2CCOCC2)C1` (configuration not stated): the AUC came to 26.4.

Another experiment has the same target. Kind of experiment: PROTAC activity at CRBN/HiBiT-tagged p300 in human HAP1 cells assessed as induction of p300 degradation by measuring degradation rate at 1000 nM measured over 24 hrs by luminescence based analysis. Type of experiment: cell-based.
Conditions: not given
As to `CNC(=O)N1CCc2c(c(N3CCN(C(=O)NCCOCCOCCOCCOCCOCCOCCNc4ccc5c(c4)C(=O)N(C4CCC(=O)NC4=O)C5=O)c4cc(-c5cnn(C)c5)c(C(F)(F)F)cc43)nn2C2CCOCC2)C1` (configuration not stated), the Activity was 0.05 h⁻¹.

The target in the next experiment is T1, Protein cereblon/CREB-binding protein (Homo sapiens). Kind of experiment: Binding affinity to recombinant CRBN/CBP bromodomain (unknown origin) assessed as ternary complex formation at 10 to 100 nM by Alphascreen-based proximity assay. Type of experiment: protein assay. To be noted: dose 10-100 nM. On the technique in general: Alpha assays give light when donor and acceptor beads are brought close together.
As to `CNC(=O)N1CCc2c(c(N3CCN(C(=O)NCCOCCOCCOCCOCCOCCOCCNc4ccc5c(c4)C(=O)N(C4CCC(=O)NC4=O)C5=O)c4cc(-c5cnn(C)c5)c(C(F)(F)F)cc43)nn2C2CCOCC2)C1` (configuration not stated), the outcome was Active.

The next experiment has as its target Protein cereblon/Bromodomain-containing protein 4 (Homo sapiens) (UniProt O60885+Q96SW2). Kind of experiment: PROTAC activity at CRBN/HiBiT-tagged BRD4 in human HAP1 cells assessed as induction of BRD4 degradation measured over 24 hrs by luminescence based analysis.
Conditions: not given
Type of experiment: cell-based.
As for `CNC(=O)N1CCc2c(c(N3CCN(C(=O)NCCOCCOCCOCCOCCOCCOCCNc4ccc5c(c4)C(=O)N(C4CCC(=O)NC4=O)C5=O)c4cc(-c5cnn(C)c5)c(C(F)(F)F)cc43)nn2C2CCOCC2)C1` (configuration not stated), the outcome was inactive.

For the next experiment, the target named is T1, Protein cereblon/CREB-binding protein (Homo sapiens). In words: PROTAC activity at CRBN/HiBiT-tagged CBP in human HAP1 cells assessed as total cumulative degradation by measuring AUC at 10 nM measured over 24 hrs by luminescence based analysis. Type of experiment: cell-based.
Conditions: not given
For `CNC(=O)N1CCc2c(c(N3CCN(C(=O)NCCOCCOCCOCCOCCOCCOCCNc4ccc5c(c4)C(=O)N(C4CCC(=O)NC4=O)C5=O)c4cc(-c5cnn(C)c5)c(C(F)(F)F)cc43)nn2C2CCOCC2)C1` (configuration not stated), the AUC is 24.2.

A further experiment deals with T2, Protein cereblon/Histone acetyltransferase p300 (Homo sapiens). In words: Binding affinity to recombinant CRBN/p300 bromodomain (unknown origin) assessed as ternary complex formation at 10 to 100 nM by Alphascreen-based proximity assay. As to conditions: dose 10-100 nM. Format: protein assay.
On to `CNC(=O)N1CCc2c(c(N3CCN(C(=O)NCCOCCOCCOCCOCCOCCOCCNc4ccc5c(c4)C(=O)N(C4CCC(=O)NC4=O)C5=O)c4cc(-c5cnn(C)c5)c(C(F)(F)F)cc43)nn2C2CCOCC2)C1` (configuration not stated), for which the outcome was Active.

A further experiment shares this target. In words: PROTAC activity at CRBN/HiBiT-tagged p300 in human HAP1 cells assessed as total cumulative degradation by measuring AUC at 1 nM measured over 24 hrs by luminescence based analysis. Type of experiment: cell-based.
Conditions: not given
In the case of `CNC(=O)N1CCc2c(c(N3CCN(C(=O)NCCOCCOCCOCCOCCOCCOCCNc4ccc5c(c4)C(=O)N(C4CCC(=O)NC4=O)C5=O)c4cc(-c5cnn(C)c5)c(C(F)(F)F)cc43)nn2C2CCOCC2)C1` (configuration not stated), the AUC was found to be 27.4.
